Key:
BRM = biological target: T1, BRM (Homo sapiens, UniProt P51531); test: ATPase catalytic activity assay (ADP-Glo), BRM; format: biochemical; details: 30 nM BRM, 400 μM ATP; for IC50: 20 nM salmon sperm DNA, read-out: BRM IP50 (μM)*
T1 construct: made in house; host or cells: High Five insect cells
Experimental: (§1) The ATPase catalytic activity of BRM or BRG-1 was measured by the in vitro biochemical assay using ADP-Glo™ (Promega, V9102). The ADP-Glo™ kinase assay is performed in two steps once the reaction is complete. The first step is to deplete any unconsumed ATP in the reaction. The second step is to convert the reaction product ADP to ATP, which will be utilized by the luciferase to generate luminesce and be detected by a luminescence reader, such as Envision.
(§2) The assay reaction mixture (10 μL) contains 30 nM of BRM or BRG-1, 20 nM salmon sperm DNA (from Invitrogen, UltraPure™ Salmon Sperm DNA Solution, cat #15632011), and 400 μM of ATP in the ATPase assay buffer, which comprises of 20 mM Tris, pH 8, 20 mM MgCl2, 50 mM NaCl, 0.1% Tween-20, and 1 mM fresh DTT (Pierce™ DTT (Dithiothreitol), cat #20290). The reaction is initiated by the addition of the 2.5 μL ATPase solution to 2.5 μL ATP/DNA solution on low volume white Proxiplate-384 plus plate (PerkinElmer,cat #6008280) and incubates at room temperature for 1 hour. Then following addition of 5 μL of ADP-Glo™ Reagent provided in the kit, the reaction incubates at room temperature for 40 minutes. Then 10 μL of Kinase Detection Reagent provided in the kit is added to convert ADP to ATP, and the reaction incubates at room temperature for 60 minutes. Finally, luminescence measurement is collected with a plate-reading luminometer, such as Envision.
as §1, with “The” for “The ATPase catalytic activity of BRM or BRG-1 was measured by the in vitro biochemical assay using ADP-Glo™ (Promega, V9102). The”
as §2, with “BRG1,” for “BRG-1,”

BRG-1 = biological target: T2, BRG-1 (Homo sapiens, UniProt P51532); test: ATPase catalytic activity assay (ADP-Glo), BRG-1; format: biochemical; details: 30 nM BRG-1, 400 μM ATP; for IC50: 20 nM salmon sperm DNA, read-out: BRG1 IP50 (μM)*; for Emax: read-out: BRG1 Max % Inhibition
T2 construct: made in house; host or cells: High Five insect cells
T2 sequence (P51532 whole entry): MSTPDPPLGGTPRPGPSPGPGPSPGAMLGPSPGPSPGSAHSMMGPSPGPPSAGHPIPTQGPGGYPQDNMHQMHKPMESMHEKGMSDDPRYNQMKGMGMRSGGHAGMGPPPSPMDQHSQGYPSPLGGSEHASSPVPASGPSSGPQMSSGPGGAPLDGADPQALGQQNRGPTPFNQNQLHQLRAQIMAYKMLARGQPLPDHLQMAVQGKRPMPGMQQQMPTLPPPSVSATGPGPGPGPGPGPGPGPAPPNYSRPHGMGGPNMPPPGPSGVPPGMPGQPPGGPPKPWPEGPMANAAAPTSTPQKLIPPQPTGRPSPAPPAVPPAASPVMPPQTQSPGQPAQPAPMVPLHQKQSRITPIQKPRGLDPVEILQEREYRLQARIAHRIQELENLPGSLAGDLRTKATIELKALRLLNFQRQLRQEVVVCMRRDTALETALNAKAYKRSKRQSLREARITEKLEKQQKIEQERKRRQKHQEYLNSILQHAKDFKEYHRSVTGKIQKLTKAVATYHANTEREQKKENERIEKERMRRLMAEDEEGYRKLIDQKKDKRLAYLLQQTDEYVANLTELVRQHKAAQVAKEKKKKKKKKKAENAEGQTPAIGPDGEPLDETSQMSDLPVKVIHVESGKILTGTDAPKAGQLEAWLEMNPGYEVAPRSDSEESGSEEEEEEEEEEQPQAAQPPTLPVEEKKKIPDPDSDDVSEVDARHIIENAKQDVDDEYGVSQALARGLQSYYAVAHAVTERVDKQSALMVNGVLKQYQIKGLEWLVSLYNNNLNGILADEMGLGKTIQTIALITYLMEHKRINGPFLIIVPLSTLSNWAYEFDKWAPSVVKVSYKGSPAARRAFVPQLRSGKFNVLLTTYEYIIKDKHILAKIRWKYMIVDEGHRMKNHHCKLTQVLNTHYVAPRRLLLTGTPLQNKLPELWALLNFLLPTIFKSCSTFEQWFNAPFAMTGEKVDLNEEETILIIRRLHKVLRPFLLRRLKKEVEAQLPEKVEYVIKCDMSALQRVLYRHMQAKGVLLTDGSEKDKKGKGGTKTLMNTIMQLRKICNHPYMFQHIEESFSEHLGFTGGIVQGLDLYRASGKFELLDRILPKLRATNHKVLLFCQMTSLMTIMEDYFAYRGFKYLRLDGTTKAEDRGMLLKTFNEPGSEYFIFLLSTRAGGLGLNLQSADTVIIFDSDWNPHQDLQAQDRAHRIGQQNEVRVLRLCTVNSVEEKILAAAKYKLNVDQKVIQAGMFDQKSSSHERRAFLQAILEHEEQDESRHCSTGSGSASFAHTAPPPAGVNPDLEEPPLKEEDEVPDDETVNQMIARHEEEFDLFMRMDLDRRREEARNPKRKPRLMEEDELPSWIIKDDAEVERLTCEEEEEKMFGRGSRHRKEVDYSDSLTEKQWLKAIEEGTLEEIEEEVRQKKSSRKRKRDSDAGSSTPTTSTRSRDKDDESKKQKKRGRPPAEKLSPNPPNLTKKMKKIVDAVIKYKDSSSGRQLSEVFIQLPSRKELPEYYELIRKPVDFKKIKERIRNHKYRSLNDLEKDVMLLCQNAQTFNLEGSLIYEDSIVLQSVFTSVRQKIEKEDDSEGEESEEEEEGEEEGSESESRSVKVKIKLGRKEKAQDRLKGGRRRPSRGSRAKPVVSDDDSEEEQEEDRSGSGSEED
Experimental: as §1, §2
as §1, with “The” for “The ATPase catalytic activity of BRM or BRG-1 was measured by the in vitro biochemical assay using ADP-Glo™ (Promega, V9102). The”
as §2, with “BRG1,” for “BRG-1,”

T1 sequence (P51531 whole entry): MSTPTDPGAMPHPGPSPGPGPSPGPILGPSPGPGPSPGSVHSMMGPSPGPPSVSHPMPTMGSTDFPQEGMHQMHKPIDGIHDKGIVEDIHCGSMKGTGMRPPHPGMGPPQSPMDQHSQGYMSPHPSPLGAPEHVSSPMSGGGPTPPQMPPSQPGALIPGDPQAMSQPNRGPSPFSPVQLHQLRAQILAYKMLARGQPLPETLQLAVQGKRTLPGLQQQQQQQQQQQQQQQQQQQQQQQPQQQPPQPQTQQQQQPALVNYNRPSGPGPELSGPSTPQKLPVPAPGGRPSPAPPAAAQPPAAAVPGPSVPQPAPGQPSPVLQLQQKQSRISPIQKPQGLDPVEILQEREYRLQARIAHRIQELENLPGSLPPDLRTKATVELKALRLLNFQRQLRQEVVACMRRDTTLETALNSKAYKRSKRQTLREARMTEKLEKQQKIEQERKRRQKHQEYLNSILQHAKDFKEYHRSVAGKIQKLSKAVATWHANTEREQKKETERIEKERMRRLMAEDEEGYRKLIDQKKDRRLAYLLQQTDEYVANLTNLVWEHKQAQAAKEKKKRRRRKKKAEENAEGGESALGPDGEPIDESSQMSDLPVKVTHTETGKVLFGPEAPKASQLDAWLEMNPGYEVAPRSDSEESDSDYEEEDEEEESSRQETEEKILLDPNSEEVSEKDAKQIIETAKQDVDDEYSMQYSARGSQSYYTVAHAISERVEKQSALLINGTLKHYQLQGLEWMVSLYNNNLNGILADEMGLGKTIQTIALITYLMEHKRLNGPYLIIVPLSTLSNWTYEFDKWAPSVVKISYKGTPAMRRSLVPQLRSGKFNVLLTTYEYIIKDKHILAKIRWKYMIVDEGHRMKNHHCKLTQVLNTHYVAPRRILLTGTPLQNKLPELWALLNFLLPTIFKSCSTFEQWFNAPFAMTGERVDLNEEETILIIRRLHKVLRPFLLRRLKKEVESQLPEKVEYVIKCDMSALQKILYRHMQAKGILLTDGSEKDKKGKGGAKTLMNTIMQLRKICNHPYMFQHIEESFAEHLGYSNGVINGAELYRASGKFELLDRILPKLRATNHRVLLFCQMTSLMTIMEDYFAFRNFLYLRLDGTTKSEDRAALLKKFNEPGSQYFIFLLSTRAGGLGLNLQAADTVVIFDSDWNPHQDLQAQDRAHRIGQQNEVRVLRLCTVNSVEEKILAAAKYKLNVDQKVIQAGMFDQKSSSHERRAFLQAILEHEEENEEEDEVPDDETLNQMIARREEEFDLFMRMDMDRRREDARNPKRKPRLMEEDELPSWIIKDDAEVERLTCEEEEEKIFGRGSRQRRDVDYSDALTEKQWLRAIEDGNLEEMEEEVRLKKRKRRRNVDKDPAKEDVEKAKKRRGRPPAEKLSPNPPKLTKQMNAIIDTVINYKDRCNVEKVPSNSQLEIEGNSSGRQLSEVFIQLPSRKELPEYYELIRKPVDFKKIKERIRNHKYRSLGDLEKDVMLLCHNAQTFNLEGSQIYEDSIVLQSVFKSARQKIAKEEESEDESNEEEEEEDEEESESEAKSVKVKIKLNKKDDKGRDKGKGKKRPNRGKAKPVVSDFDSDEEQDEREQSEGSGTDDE

SMILES	BRM Max % Inhibition (BRM)	IC50 (BRM)	IC50 (BRG-1)	Emax (BRG-1)
Cc1cc(-c2cccc(-c3csc(NC(=O)CNC(=O)c4cc(C5CC5)n(S(C)(=O)=O)c4)n3)c2)cc(C)n1 [Compound 19, 5-cyclopropyl-N-(2-((4-(3-(2,6-dimethylpyridin-4-yl)phenyl)thiazol-2-yl)amino)-2-oxoethyl)-1-(methylsulfonyl)-1H-pyrrole-3-carboxamide]	>95%	0.1 to 1 µM	0.1 to 1 µM	> 80%
Cc1c(C(=O)NCC(=O)Nc2nc(-c3cccc(N4C[C@@H](C)O[C@@H](C)C4)c3)cs2)cnn1C(C)(C)C [Compound 42, 1-(tert-butyl)-N-(2-((4-(3-((2R,6S)-2,6-dimethylmorpholino)phenyl)thiazol-2-yl)amino)-2-oxoethyl)-5-methyl-1H-pyrazole-4-carboxamide]		0.1 to 1 µM	0.1 to 1 µM	
CS(=O)(=O)n1cc(C(=O)NCC(=O)Nc2nc(-c3cccc(-c4ccncc4)c3)cs2)c2ncccc21 [Compound 3, 1-(methylsulfonyl)-N-(2-oxo-2-((4-(3-(pyridin-4-yl)phenyl)thiazol-2-yl)amino)ethyl)-1H-pyrrolo[3,2-b]pyridine-3-carboxamide]	>40%	> 5 µM	> 5 µM	> 40%
CC(C)S(=O)(=O)n1cc(C(=O)NCC(=O)Nc2nc(-c3cccc(N4C[C@@H](C)O[C@@H](C)C4)c3)cs2)cc1Cl [Compound 36]	>90%	0.1 to 1 µM	1 to 5 µM	> 60%
Cc1cn(S(C)(=O)=O)cc1C(=O)NCC(=O)Nc1nc(-c2cccc(-c3ccncc3)c2)cs1 [Compound 9, 4-methyl-1-(methylsulfonyl)-N-(2-oxo-2-((4-(3-(pyridin-4-yl)phenyl)thiazol-2-yl)amino)ethyl)-1H-pyrrole-3-carboxamide]	>80%	< 0.1 µM	< 0.1 µM	> 60%
Cc1cc(-c2cccc(-c3csc(NC(=O)CNC(=O)c4cn(S(C)(=O)=O)c5c4CCCC5)n3)c2)cc(C)n1 [Compound 35, N-(2-((4-(3-(2,6-dimethylpyridin-4-yl)phenyl)thiazol-2-yl)amino)-2-oxoethyl)-1-(methylsulfonyl)-4,5,6,7-tetrahydro-1H-indole-3-carboxamide]	>95%	< 0.1 µM	0.1 to 1 µM	> 80%
Cc1cc(-c2cccc(-c3csc(NC(=O)CNC(=O)c4cn(S(=O)(=O)C(C)C)c5c4CCCC5)n3)c2)cc(C)n1 [Compound 20, N-(2-((4-(3-(2,6-dimethylpyridin-4-yl)phenyl)thiazol-2-yl)amino)-2-oxoethyl)-1-(isopropylsulfonyl)-4,5,6,7-tetrahydro-1H-indole-3-carboxamide]	>95%	0.1 to 1 µM	> 5 µM	< 30%
Cc1c(C(=O)NCC(=O)Nc2nc(-c3cccc(N4C[C@@H](C)O[C@@H](C)C4)c3)cs2)cn(S(C)(=O)=O)c1C [Compound 15]	>95%	< 0.1 µM	0.1 to 1 µM	> 90%

Reference: patent US12509453B2, “BRM/BRG1 inhibitors and uses thereof” (Foghorn Therapeutics Inc., priority 2019, dated 2025)
